# Experimental data as given in patent publication US20260158011A1 (Achieve Life Sciences, Inc., priority 2023, published 2026).
# Test system: adult e-cigarette users
# Conditions: 12 Weeks, N = 106, Safety Set
# Excerpt: A second measurement consisted of biochemically verified continuous vaping abstinence at any time during treatment, with vaping abstinence at Week 3-6 or Week 6-9 for of cytisinicline treatment vs placebo. 7-day point prevalence rates were compared for vaping abstinence (Week 2 to 12) (FIG. 62). An additional measurement included reduction in daily vaping as measured by cotinine, where cytisinicline treatment vs placebo for a reduction in nicotine vaping using weekly quantitative cotinine levels from Week 2 to Week 12. Safety was assessed by adverse effects and serious adverse effects, considering number, severity, and attribution to study drug.
compound,measurement,value
"O=c1cccc2n1C[C@@H]1CNC[C@H]2C1 [cytisine, (−)-Cytisine]","At Least One AE, Events",123 Events
same,"At Least One AE, subjects",56 (52.8) n (%)
same,At Least One Related Serious TEAE,0 n (%)/Events
same,At Least One Serious TEAE,0 n (%)/Events
same,"At Least One TEAE Leading to Dose Reduction, Dose Interrupted or Study Drug Discontinuation",7 (6.6) n (%)
same,Subjects with Dose Reduction,3 (2.8) n (%)
same,"TEAE Abdominal discomfort, subjects %",(0.9) %
same,"TEAE Abdominal discomfort, subjects n",1 n
same,"TEAE Abnormal dreams, subjects %",(12.3) %
same,"TEAE Abnormal dreams, subjects n",13 n
same,"TEAE Action Taken With Study Drug: Dose Interrupted, Events",1 Events
same,"TEAE Action Taken With Study Drug: Dose Interrupted, subjects",1 (0.9) n (%)
same,"TEAE Action Taken With Study Drug: Dose Not Changed, Events",101 Events
same,"TEAE Action Taken With Study Drug: Dose Not Changed, subjects",51 (48.1) n (%)
same,"TEAE Action Taken With Study Drug: Dose Reduced, Events",3 Events
same,"TEAE Action Taken With Study Drug: Dose Reduced, subjects",3 (2.8) n (%)
same,"TEAE Action Taken With Study Drug: Drug Withdrawn, Events",7 Events
same,"TEAE Action Taken With Study Drug: Drug Withdrawn, subjects",4 (3.8) n (%)
same,"TEAE Action Taken With Study Drug: Not Applicable, Events",7 Events
same,"TEAE Action Taken With Study Drug: Not Applicable, subjects",5 (4.7) n (%)
same,"TEAE Agitation, subjects",0 n (%)
same,"TEAE Akathisia, subjects %",(0.9) %
same,"TEAE Akathisia, subjects n",1 n
same,"TEAE Alanine aminotransferase increased, subjects",0 n (%)
same,"TEAE Alveolar osteitis, subjects",0 n (%)
same,"TEAE Anal fissure, subjects %",(0.9) %
same,"TEAE Anal fissure, subjects n",1 n
same,"TEAE Animal bite, subjects %",(0.9) %
same,"TEAE Animal bite, subjects n",1 n
same,"TEAE Anxiety, subjects %",(9.4) %
same,"TEAE Anxiety, subjects n",10 n
same,"TEAE Aspartate aminotransferase increased, subjects",0 n (%)
same,"TEAE Attention deficit hyperactivity disorder, subjects %",(0.9) %
same,"TEAE Attention deficit hyperactivity disorder, subjects n",1 n
same,"TEAE Back pain, subjects %",(0.9) %
same,"TEAE Back pain, subjects n",1 n
same,"TEAE Bronchitis, subjects %",(1.9) %
same,"TEAE Bronchitis, subjects n",2 n
same,"TEAE Chlamydial infection, subjects %",(0.9) %
same,"TEAE Chlamydial infection, subjects n",1 n
same,"TEAE Concussion, subjects",0 n (%)
same,"TEAE Constipation, subjects %",(1.9) %
same,"TEAE Constipation, subjects n",2 n
same,"TEAE Decreased appetite, subjects %",(0.9) %
same,"TEAE Decreased appetite, subjects n",1 n
same,"TEAE Depressed mood, subjects",0 n (%)
same,"TEAE Depression, subjects",0 n (%)
same,"TEAE Dermatitis contact, subjects %",(0.9) %
same,"TEAE Dermatitis contact, subjects n",1 n
same,"TEAE Disturbance in attention, subjects %",(0.9) %
same,"TEAE Disturbance in attention, subjects n",1 n
same,"TEAE Dizziness, subjects %",(2.8) %
same,"TEAE Dizziness, subjects n",3 n
same,"TEAE Dry mouth, subjects %",(1.9) %
same,"TEAE Dry mouth, subjects n",2 n
same,"TEAE Dyspepsia, subjects %",(0.9) %
same,"TEAE Dyspepsia, subjects n",1 n
same,"TEAE Ear infection, subjects",0 n (%)
same,"TEAE Eye pruritus, subjects %",(0.9) %
same,"TEAE Eye pruritus, subjects n",1 n
same,"TEAE Fatigue, subjects %",(5.7) %
same,"TEAE Fatigue, subjects n",6 n
same,"TEAE Female sterilisation, subjects %",(0.9) %
same,"TEAE Female sterilisation, subjects n",1 n
same,"TEAE Gastroenteritis norovirus, subjects",0 n (%)
same,"TEAE Gastroenteritis viral, subjects",0 n (%)
same,"TEAE Gastroenteritis, subjects %",(1.9) %
same,"TEAE Gastroenteritis, subjects n",2 n
same,"TEAE Gout, subjects %",(0.9) %
same,"TEAE Gout, subjects n",1 n
same,"TEAE Headache, subjects %",(6.6) %
same,"TEAE Headache, subjects n",7 n
same,"TEAE Hot flush, subjects %",(0.9) %
same,"TEAE Hot flush, subjects n",1 n
same,"TEAE Hyperhidrosis, subjects",0 n (%)
same,"TEAE Increased appetite, subjects %",(0.9) %
same,"TEAE Increased appetite, subjects n",1 n
same,"TEAE Insomnia, subjects %",(10.4) %
same,"TEAE Insomnia, subjects n",11 n
same,"TEAE Irritability, subjects %",(2.8) %
same,"TEAE Irritability, subjects n",3 n
same,"TEAE Leading to Dose Reduction, Dose Interrupted or Study Drug Discontinuation: Abdominal discomfort",1 (0.9) n (%)
same,"TEAE Leading to Dose Reduction, Dose Interrupted or Study Drug Discontinuation: Abnormal dreams",1 (0.9) n (%)
same,"TEAE Leading to Dose Reduction, Dose Interrupted or Study Drug Discontinuation: Anal fissure",1 (0.9) n (%)
same,"TEAE Leading to Dose Reduction, Dose Interrupted or Study Drug Discontinuation: Anxiety",2 (1.9) n (%)
same,"TEAE Leading to Dose Reduction, Dose Interrupted or Study Drug Discontinuation: Depression",0 n (%)
same,"TEAE Leading to Dose Reduction, Dose Interrupted or Study Drug Discontinuation: Fatigue",1 (0.9) n (%)
same,"TEAE Leading to Dose Reduction, Dose Interrupted or Study Drug Discontinuation: Headache",0 n (%)
same,"TEAE Leading to Dose Reduction, Dose Interrupted or Study Drug Discontinuation: Insomnia",2 (1.9) n (%)
same,"TEAE Leading to Dose Reduction, Dose Interrupted or Study Drug Discontinuation: Irritability",1 (0.9) n (%)
same,"TEAE Leading to Dose Reduction, Dose Interrupted or Study Drug Discontinuation: Nausea",0 n (%)
same,"TEAE Leading to Dose Reduction, Dose Interrupted or Study Drug Discontinuation: Panic attack",2 (1.9) n (%)
same,"TEAE Leading to Dose Reduction, Dose Interrupted or Study Drug Discontinuation: Pregnancy",0 n (%)
same,"TEAE Menorrhagia, subjects %",(0.9) %
same,"TEAE Menorrhagia, subjects n",1 n
same,"TEAE Migraine, subjects %",(0.9) %
